The record followed here is patent US20080293712A1, “Benzo[C][2,7]Naphtyridine Derivatives, Methods of Making Thereof and Methods of Use Thereof” (WYETH, priority 2007, published 2008).

pIC50: −log10 of the molar value.

By pIC50 is commonly meant the IC50 on a negative log10 scale, so that one unit is a factor of ten.

The assay concerns the target T1, PDK-1 (Homo sapiens, UniProt O15530).
T1 sequence (O15530 1-556): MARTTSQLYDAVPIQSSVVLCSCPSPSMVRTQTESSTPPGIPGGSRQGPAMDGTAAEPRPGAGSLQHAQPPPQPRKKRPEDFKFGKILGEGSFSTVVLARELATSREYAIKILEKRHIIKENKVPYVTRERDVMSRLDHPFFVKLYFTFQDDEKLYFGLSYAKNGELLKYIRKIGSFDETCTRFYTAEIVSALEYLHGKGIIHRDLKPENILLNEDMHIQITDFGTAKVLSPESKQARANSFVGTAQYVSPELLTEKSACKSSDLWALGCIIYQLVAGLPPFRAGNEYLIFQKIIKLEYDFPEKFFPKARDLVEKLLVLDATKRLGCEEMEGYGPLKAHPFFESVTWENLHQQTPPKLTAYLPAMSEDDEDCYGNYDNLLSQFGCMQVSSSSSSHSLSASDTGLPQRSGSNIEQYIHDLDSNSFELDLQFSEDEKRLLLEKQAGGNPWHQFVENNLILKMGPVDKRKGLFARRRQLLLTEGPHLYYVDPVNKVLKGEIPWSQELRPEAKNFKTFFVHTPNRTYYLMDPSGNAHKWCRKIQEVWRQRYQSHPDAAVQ
In words: PDK-1 kinase inhibition ELISA assay (phosphorylation of His6-tagged SGK1 S422D by PDK-1). It counts as biochemical. Particulars: PDK-1 ELISA, Table 11; read-out: Average IC50. In general terms: An ELISA detects its analyte on a solid surface through an enzyme-linked reagent.
In the case of `COc1cc2ncc3c(N)nc(-c4cncc(OC[C@@H](N)CNc5ccc(F)c(Cl)c5)c4)cc3c2cc1OC` [Ib-84, (2S)-3-{[5-(4-amino-8,9-dimethoxybenzo[c][2,7]naphthyridin-2-yl)pyridin-3-yl]oxy}-N1-(3-chloro-4-fluorophenyl)propane-1,2-diamine], the pIC50 is 8.30. As to `COc1cc2ncc3c(N)nc(-c4cncc(OC[C@@H](N)CNc5ccc(F)cc5F)c4)cc3c2cc1OC` [Ib-85, (2S)-3-{[5-(4-amino-8,9-dimethoxybenzo[c][2,7]naphthyridin-2-yl)pyridin-3-yl]oxy}-N1-(2,4-difluorophenyl)propane-1,2-diamine], the negative logarithm of the IC50 (pIC50) is 8.30. The figure for `COc1cc2ncc3c(N)nc(-c4cncc(OC[C@@H](N)CNC(C)(C)C)c4)cc3c2cc1OC` [Ib-86, (2S)-3-{[5-(4-amino-8,9-dimethoxybenzo[c][2,7]naphthyridin-2-yl)pyridin-3-yl]oxy}-N1-tert-butylpropane-1,2-diamine] is 7.11; for `COc1cc2ncc3c(N)nc(-c4cncc(OC[C@@H](N)CNC(C)(C)Cc5ccc(F)cc5)c4)cc3c2cc1OC` [Ib-87, (2S)-3-{[5-(4-amino-8,9-dimethoxybenzo[c][2,7]naphthyridin-2-yl)pyridin-3-yl]oxy}-N1-[2-(4-fluorophenyl)-1,1-dimethylethyl]propane-1,2-diamine] it is 7.92; for `COc1cc2ncc3c(N)nc(-c4cncc(OC[C@@H](N)CNC5CCCCC5)c4)cc3c2cc1OC` [Ib-89, (2S)-3-{[5-(4-amino-8,9-dimethoxybenzo[c][2,7]naphthyridin-2-yl)pyridin-3-yl]oxy}-N1-cyclohexylpropane-1,2-diamine] it is 7.21. For the molecule `COc1cc2ncc3c(N)nc(-c4cncc(OC[C@@H](N)CNC(C)(C)c5ccccc5)c4)cc3c2cc1OC` [Ib-90, (2S)-3-{[5-(4-amino-8,9-dimethoxybenzo[c][2,7]naphthyridin-2-yl)pyridin-3-yl]oxy}-N1-(1-methyl-1-phenylethyl)propane-1,2-diamine], the negative logarithm of the IC50 (pIC50) is 8.15.

For `COc1cc2ncc3c(N)nc(-c4cncc(OC[C@@H](N)CNC5CCC(O)CC5)c4)cc3c2cc1OC` (stereo partly drawn) [Ib-91, 4-{[(2S)-2-amino-3-{[5-(4-amino-8,9-dimethoxybenzo[c][2,7]naphthyridin-2-yl)pyridin-3-yl]oxy}propyl]amino}cyclohexanol], the pIC50 was 7.40. Turning to `COc1cc2ncc3c(N)nc(-c4cncc(OC[C@@H](N)CNC(C)(C)c5cccnc5)c4)cc3c2cc1OC` [Ib-93, (2S)-3-{[5-(4-amino-8,9-dimethoxybenzo[c][2,7]naphthyridin-2-yl)pyridin-3-yl]oxy}-N1-(1-methyl-1-pyridin-3-ylethyl)propane-1,2-diamine], the pIC50 was 8.22.

On to `COc1cc2ncc3c(N)nc(-c4cncc(OC[C@@H](N)CNC(C)(C)c5ccccn5)c4)cc3c2cc1OC` [Ib-94, (2S)-3-{[5-(4-amino-8,9-dimethoxybenzo[c][2,7]naphthyridin-2-yl)pyridin-3-yl]oxy}-N1-(1-methyl-1-pyridin-2-ylethyl)propane-1,2-diamine], for which the negative logarithm of the IC50 (pIC50) is 8.40. As to `COc1cc2ncc3c(N)nc(-c4cncc(OC[C@@H](N)CNCC5CCCCC5)c4)cc3c2cc1OC` [Ib-95, (2S)-3-{[5-(4-amino-8,9-dimethoxybenzo[c][2,7]naphthyridin-2-yl)pyridin-3-yl]oxy}-N1-(cyclohexylmethyl)propane-1,2-diamine], the negative logarithm of the IC50 (pIC50) is 7.28.

Turning to `COc1cc2ncc3c(N)nc(-c4cncc(OC[C@@H](N)CNC5CCOCC5)c4)cc3c2cc1OC` [Ib-96, (2S)-3-{[5-(4-amino-8,9-dimethoxybenzo[c][2,7]naphthyridin-2-yl)pyridin-3-yl]oxy}-N1-(tetrahydro-2H-pyran-4-yl)propane-1,2-diamine], the negative logarithm of the IC50 (pIC50) is 7.59. As to `COc1cc2ncc3c(N)nc(-c4cncc(OC[C@@H](N)CNCCc5ccncc5)c4)cc3c2cc1OC` [Ib-97, (2S)-3-{[5-(4-amino-8,9-dimethoxybenzo[c][2,7]naphthyridin-2-yl)pyridin-3-yl]oxy}-N1-(2-pyridin-4-ylethyl)propane-1,2-diamine], the pIC50 is 7.62. As for `COc1cc2ncc3c(N)nc(-c4cncc(OC[C@@H](N)CN5CCC[C@H]5c5nccs5)c4)cc3c2cc1OC` [Ib-98, 2-[5-({(2S)-2-amino-3-[(2S)-2-(1,3-thiazol-2-yl)pyrrolidin-1-yl]propyl}oxy)pyridin-3-yl]-8,9-dimethoxybenzo[c][2,7]naphthyridin-4-amine], the figure is 8.00; as for `COc1cc2ncc3c(N)nc(-c4cncc(OC[C@@H](N)CNC5CCC5)c4)cc3c2cc1OC` [Ib-100, (2S)-3-{[5-(4-amino-8,9-dimethoxybenzo[c][2,7]naphthyridin-2-yl)pyridin-3-yl]oxy}-N1-cyclobutylpropane-1,2-diamine], 7.20.

Take `COc1cc2ncc3c(N)nc(-c4cncc(OC[C@@H](N)CNC5CCCC5)c4)cc3c2cc1OC` [Ib-101, (2S)-3-{[5-(4-amino-8,9-dimethoxybenzo[c][2,7]naphthyridin-2-yl)pyridin-3-yl]oxy}-N1-cyclopentylpropane-1,2-diamine]: the pIC50 is 7.04. As to `COc1cc2ncc3c(N)nc(-c4cncc(OC[C@@H](N)CN5CCC[C@@H]5c5nccs5)c4)cc3c2cc1OC` [Ib-102, 2-[5-({(2S)-2-amino-3-[(2R)-2-(1,3-thiazol-2-yl)pyrrolidin-1-yl]propyl}oxy)pyridin-3-yl]-8,9-dimethoxybenzo[c][2,7]naphthyridin-4-amine], the pIC50 is 7.42. Take `COc1cc2ncc3c(N)nc(-c4cncc(OC[C@@H](N)CNCC5(c6ccccc6)CCOCC5)c4)cc3c2cc1OC` [Ib-104, (2S)-3-{[5-(4-amino-8,9-dimethoxybenzo[c][2,7]naphthyridin-2-yl)pyridin-3-yl]oxy}-N1-[(4-phenyltetrahydro-2H-pyran-4-yl)methyl]propane-1,2-diamine]: the pIC50 was 7.60. As for `COc1cc2ncc3c(N)nc(-c4cncc(OC[C@@H](N)CNCC5(c6ccccc6)CCCC5)c4)cc3c2cc1OC` [Ib-105, (2S)-3-{[5-(4-amino-8,9-dimethoxybenzo[c][2,7]naphthyridin-2-yl)pyridin-3-yl]oxy}-N1-[(1-phenylcyclopentyl)methyl]propane-1,2-diamine], the figure is 7.39; as for `COc1cc2ncc3c(N)nc(-c4cncc(OC[C@@H](N)CNCC5(c6ccccc6)CC5)c4)cc3c2cc1OC` [Ib-106, (2S)-3-{[5-(4-amino-8,9-dimethoxybenzo[c][2,7]naphthyridin-2-yl)pyridin-3-yl]oxy}-N1-[(1-phenylcyclopropyl)methyl]propane-1,2-diamine], 7.49. As for `COc1cc2ncc3c(N)nc(-c4cncc(OC[C@@H](N)CN5CCN(c6ccncc6)CC5)c4)cc3c2cc1OC` [Ib-107, 2-(5-{[(2S)-2-amino-3-(4-pyridin-4-ylpiperazin-1-yl)propyl]oxy}pyridin-3-yl)-8,9-dimethoxybenzo[c][2,7]naphthyridin-4-amine], the figure is 7.38; as for `COc1cc2ncc3c(N)nc(-c4cncc(OC[C@@H](N)CNC(C)(C)c5ccncc5)c4)cc3c2cc1OC` [Ib-108, (2S)-3-{[5-(4-amino-8,9-dimethoxybenzo[c][2,7]naphthyridin-2-yl)pyridin-3-yl]oxy}-N1-(1-methyl-1-pyridin-4-ylethyl)propane-1,2-diamine], 8.15; as for `COc1cc2ncc3c(N)nc(-c4cncc(OC[C@@H](N)CNCC(F)(F)F)c4)cc3c2cc1OC` [Ib-109, (2S)-3-{[5-(4-amino-8,9-dimethoxybenzo[c][2,7]naphthyridin-2-yl)pyridin-3-yl]oxy}-N1-(2,2,2-trifluoroethyl)propane-1,2-diamine], 7.85. Consider `COc1cc2ncc3c(N)nc(-c4cncc(OC[C@@H](N)CN5CCCC5)c4)cc3c2cc1OC` [Ib-110, 2-(5-{[(2S)-2-amino-3-pyrrolidin-1-ylpropyl]oxy}pyridin-3-yl)-8,9-dimethoxybenzo[c][2,7]naphthyridin-4-amine], for which the negative logarithm of the IC50 (pIC50) was 7.85. As to `COc1cc2ncc3c(N)nc(-c4cncc(OC[C@@H](N)CNc5ccc(N)cc5)c4)cc3c2cc1OC` [Ib-111, N-[(2S)-2-amino-3-{[5-(4-amino-8,9-dimethoxybenzo[c][2,7]naphthyridin-2-yl)pyridin-3-yl]oxy}propyl]benzene-1,4-diamine], the negative-log IC50 (pIC50) is 7.09. Turning to `COc1cc2ncc3c(N)nc(-c4cncc(OC[C@@H](N)CN(C)c5cccc(Cl)c5)c4)cc3c2cc1OC` [Ib-112, (2S)-3-{[5-(4-amino-8,9-dimethoxybenzo[c][2,7]naphthyridin-2-yl)pyridin-3-yl]oxy}-N1-(3-chlorophenyl)-N1-methylpropane-1,2-diamine], the negative-log IC50 (pIC50) was 7.40.

As to `COc1cc2ncc3c(N)nc(-c4cncc(OC[C@@H](N)CNc5nccc(C)n5)c4)cc3c2cc1OC` [Ib-113, (2S)-3-{[5-(4-amino-8,9-dimethoxybenzo[c][2,7]naphthyridin-2-yl)pyridin-3-yl]oxy}-N1-(4-methylpyrimidin-2-yl)propane-1,2-diamine], the negative-log IC50 (pIC50) was 7.70.

In the case of `COc1cc2ncc3c(N)nc(-c4cncc(OC[C@@H]5CN=C(Nc6ccccc6)N5)c4)cc3c2cc1OC` [Ib-114, 2-(5-{[(5S)-2-anilino-4,5-dihydro-1H-imidazol-5-yl]methoxy}pyridin-3-yl)-8,9-dimethoxybenzo[c][2,7]naphthyridin-4-amine], the pIC50 was 7.09.
